The source of these data is patent publication US20240408005A1, “USE OF CALCIUM SENSING RECEPTOR ANTAGONISTS FOR TREATING OCULAR DISORDERS” (The Regents of the University of California, priority 2023, published 2024).

One assay relates to CFTR. Put plainly: Ocular surface potential difference (OSPD), forskolin / CFTRinh-172 responses. Format: in vivo, mouse. The text has this:
(§1) Using pharmacological activators and inhibitors, OSPD allows studying activities of various ion channels/transporters in the ocular surface.^12 In these studies, baseline OSPD is established using a high Cl^− solution that mimics the tear film. OSPD changes induced by amiloride (ENaC inhibitor) indicates Na^+ transport via ENaC. Similarly, OSPD changes induced by forskolin (cAMP agonist) and CFTRinh-172 (CFTR inhibitor) indicates Cl^− secretion via cAMP-activated Cl^− channels and particularly CFTR. Lastly, OSPD changes induced by Ca^2+ agonist ATP indicates Cl^− secretion mediated by CaCCs.
Sequential perfusion of the ocular surface with solutions containing amiloride (ENaC inhibitor), forskolin (cAMP agonist), CFTRinh-172 (CFTR inhibitor), and ATP (Ca^2+ agonist) thus allows determining activities of ENaC, CFTR, and CaCC ion channels, respectively (FIG. 4A).
The compositions of perfusion solutions follow the solutions used in the standardized human nasal and ocular potential difference protocol.^12,13 Solutions #1-3 (high Cl^−, amiloride, and low Cl^−, respectively) were made in 1-liter batches, pH balanced to 7.4, and filtered in a sterile environment prior to refrigeration and used within 3 months. Solution #1 (high Cl^−) contained 1 L Ringer's injection (containing 147 mM NaCl, 2 mM CaCl2), 4 mM KCl, 2.4 mM K2HPO4, 0.4 mM KH2PO4, and 1.2 mM MgCl2. 100 μM amiloride was added to Solution #1 to create Solution #2 (amiloride). Solution #3 (low Cl^−) was identical to Solution #1, except NaCl was replaced with sodium gluconate. Cinacalcet (CaSR agonist) and NPS-2143 (CaSR antagonist) were purchased from Tocris Bioscience (Minneapolis, MN, USA). All other chemicals were purchased from Sigma-Aldrich (St. Louis, MO, USA).
Ocular surface potential difference (OSPD) and tear fluid volume measurements were performed in mice with topically applied cinacalcet (CaSR activator) and NPS-2143 (CaSR inhibitor). Mice were anesthetized with isoflurane and body temperature was maintained at 37° C. via a heating pad. As described previously,^12,14,15 open-circuit transepithelial potential differences were measured in response to serial perfusions of different isoosmolar (310 mOsm/kg H2O) solutions over the ocular surface at 5-10 ml/min. The measuring electrode was in contact with the perfusion catheter which was carefully positioned using a three-axis micromanipulator directly above the mouse ocular surface and the reference electrode was grounded via a 23-gauge butterfly needle agar bridge inserted subcutaneously in the back. Measuring and reference electrodes consisted of Ag/AgCl with 3 M KCl agar bridges, and both electrodes were connected to an ISO-Z headstage, BMA-200 high-impedance amplifier/voltmeter, and PowerLab analog-to-digital converter (ADInstruments; Colorado Springs, CO, USA) connected to a computer (FIG. 1). Each solution was perfused onto the ocular surface using a gravity perfusion system (ALA Scientific; Farmingdale, NY, USA) for 1-3 minutes until a stable OSPD reading was obtained.

Assay [1] in a line: Tear fluid volume by endodontic absorbent paper point tear test (EAPPTT). Format: in vivo, BALB/c mice. Particulars: for EAPPTT wetting length: 0.001% single 10 μL dose, baseline 2.3±0.2 mm. As for the experimental part:
[…] All mice were kept at ambient conditions (approximately 50% humidity and 21° C.) and provided unrestricted access to food and water.

The next assay concerns ENaC. Briefly: Ocular surface potential difference (OSPD), amiloride-induced depolarization. Format: in vivo, mouse. The note with it: topical, 100 μM amiloride, 0-30 μM cinacalcet in all solutions.
From the text: as §1, with “CaCCs. […]” for “CaCCs.”
(§2) Ocular surface potential difference (OSPD) and tear fluid volume measurements were performed in mice with topically applied cinacalcet (CaSR activator) and NPS-2143 (CaSR inhibitor). […] As described previously,^12,14,15 open-circuit transepithelial potential differences were measured in response to serial perfusions of different isoosmolar (310 mOsm/kg H2O) solutions over the ocular surface at 5-10 ml/min. […] Each solution was perfused onto the ocular surface using a gravity perfusion system (ALA Scientific; Farmingdale, NY, USA) for 1-3 minutes until a stable OSPD reading was obtained.

The next assay deals with CaCC. Put plainly: Ocular surface potential difference (OSPD), ATP-induced hyperpolarization. Format: in vivo, mouse.
From the text: as §1, with “CaCCs. […]” for “CaCCs.”
as §2

The test system of the next assay is mouse ocular surface. Put plainly: Baseline ocular surface potential difference (OSPD). It is filed as in vivo. The note with it: topically administered, mice.
From the text: as §1, with “CaCCs. […]” for “CaCCs.”
as §2

The conditions of assay [2]: in vivo; cited from earlier work.

As for `CC(C)(Cc1ccc2ccccc2c1)NC[C@@H](O)COc1cccc(Cl)c1C#N` [NPS-2143, 2-chloro-6-[(2R)-3-([1,1-dimethyl-2-(2-naphthalenyl)ethyl]amino)-2-hydroxypropoxy]benzonitrile], in the assay with CFTR (30 μM, 10 μM CFTRinh-172), the “reversal of response by CFTR inhibitor CFTRinh-172” value is on record as “partially reversed”. In the assay on CFTR (30 μM, 10 μM forskolin), the “hyperpolarization relative to subsequently applied maximal forskolin-induced hyperpolarization” value stood at 70%. In the assay with CFTR (perfusion of ocular surface with 30 μM), the “hyperpolarization (OSPD change)” value is −13 mV. In addition, in assay [1] (0.001% or 30 μM, single 10 μL dose, 15 minutes after treatment), the “increased tear fluid volume” value worked out at 60%. The EAPPTT wetting length in assay [1] (15 minutes after administration, mean±SEM) is 3.6±0.2 mm; in assay [1] (8 hours after administration) it was 3.6±0.2 mm. For the same compound, the “reversibility of effect on tear volume” value in assay [1] (24 h after treatment) is “return of tear volume to near baseline values”. The “increase of tear fluid volume” value in assay [1] (single dose topical 0.001% or 30 μM, for at least eight hours) is more than 60%.

Turning to `C[C@@H](NCCCc1cccc(C(F)(F)F)c1)c1cccc2ccccc12` [cinacalcet], in the assay with ENaC, the “effect on ENaC activity / Na+ absorption mediated by ENaC (amiloride-induced depolarization)” value is “no effect”. The “lower CFTRinh-172 response (CFTR activity)” value with CFTR (at 30 μM, 10 μM CFTRinh-172, FIG. 4E) is reported as “up to 90%”. The “lower forskolin response (CFTR activity)” value in the assay with CFTR (at 30 μM, 10 μM forskolin, FIG. 4D) is listed as “up to 90%”. Further, the “inhibition of forskolin-induced Cl− secretion and CFTR activity” value with CFTR (at 30 μM, concentration-dependent, topical, mice) was “up to 90%”. Also, in the assay on CaCC (30 μM cinacalcet, 100 μM ATP, without prior forskolin and CFTRinh-172, FIG. 5), the “inhibition of ATP response” value is reported as approximately 50%. For the same compound, the “lower ATP-induced hyperpolarization (CaCC activity)” value with CaCC (100 μM ATP added after forskolin and CFTRinh-172, FIG. 4F) was 90%. Besides, the “effect on baseline OSPD” value in the assay on mouse ocular surface is listed as “no effect”.

In the case of `O=c1ccn([C@@H]2O[C@H](COP(=O)(O)OP(=O)(O)OP(=O)(O)OP(=O)(O)OC[C@H]3O[C@@H](n4ccc(=O)[nH]c4=O)[C@H](O)[C@@H]3O)[C@@H](O)[C@H]2O)c(=O)[nH]1` [diquafosol], the “outcome of clinical trials for DED” value in assay [2] is recorded as “did not meet the primary endpoints”.
